Experimental findings from US5283246A, “Trimetazidine compounds” (Adir et Compagnie, priority 1991, dated 1994) are described below.

One assay deals with human LDLs. Description: Modification of human LDLs by copper sulphate (lipid peroxidation, MDA production). The class given is biochemical. The note with it: copper sulphate 5×10^-6 M, 24 hours; read-out: IC50, inhibition of copper-induced modification (MDA production) of human LDLs. Here is the method:
Human LDLs are incubated for 24 hours in the presence of copper sulphate (5×10^-6 M) and in the absence or presence of the compounds tested (10^-7 M to 10^-4 M). After incubation, the peroxidation of the LDLs is evaluated by electrophoresis on agar gel and by the formation of one of the products of lipid peroxidation malonic dialdehyde (MDA), (Parthasarathy S., Young S. G., Witztum J. L., Pittman R. C. and Steinberg, D.; J. Clin. invest. 77; 641-644, 1986).
The activity of the tested compounds is evaluated by calculating those concentrations (IC50) that reduce the production of MDA by 50% compared with control experiments in the absence of the tested compound.

In the next assay the test system is cardiac cells. Description: Oxidative necrosis of cardiac cells induced by hypoxanthine/xanthine-oxidase (XO + HX). The class given is cell-based, rat (newborn). The note with it: Rattus norvegicus, 4 h; for activity at 10 µM: 10^-5 M, read-out: necrosis index of cardiac cells, XO + HX, compound 10^-5 M; for activity at 10 µM / activity at 1 µM / activity at 0.1 µM: XO + HX, control XO + HX = 100.0; for activity at 1 µM: 10^-6 M, read-out: necrosis index of cardiac cells, XO + HX, compound 10^-6 M; for activity at 0.1 µM: 10^-7 M, read-out: necrosis index of cardiac cells, XO + HX, compound 10^-7 M; for minimal effective concentration: XO + HX induced oxidative necrosis, read-out: concentration at which compounds prove to be protective against necrosis. Here is the method:
The cardiac cells of newborn rats are used between the 5th and 6th days after placing in culture. Oxidative necrosis is induced by the free radical-producing enzymatic system hypoxanthine (HX, 1 -mm) and xanthineoxidase (XO, 10 mU/ml). The necrosis is evaluated 4 hours after the addition of XO/HX by measuring by spectrophotometry the cytosolic α-hydroxybutyrate dehydrogenase (a-HBDH) activity liberated in the supernatant. The cells are treated with the test compounds 16 hours and 1 hour before the beginning of the experiment after renewing the medium. At the beginning of the experiment, the treatment is carried out again one last time.
Table 3 lists the necrosis indices of cardiac cells induced by the hypoxanthine/xanthine-oxidase system alone or in the presence of increasing concentrations of the compounds of the invention.

The next assay has as its system isolated hearts of rats. Description: Hypoxia reoxygenation on the isolated heart of a rat. Further details: species or system Wistar rat. The note with it: for functional recovery of the hearts during reoxygenation / reduction of the developing contracture at the end of 30 minutes reoxygenation: Example 1 at 3×10^-7 M, 10 at 10^-7 M, 13 at 7×10^-7 M; for functional recovery of the hearts during reoxygenation: 40% in the control experiments; for reduction of the developing contracture at the end of 30 minutes reoxygenation: vs control; for Contracture, hypoxia 10 min / Contracture, hypoxia 30 min / Contracture, hypoxia 60 min / Contracture, reoxygenation 15 min / Contracture, reoxygenation 30 min: Example 1 at 3 × 10^-7 M, Example 10 at 10^-7 M, Example 13 at 7 × 10^-7 M; for Contracture, hypoxia 10 min: control 23.7 ± 6.8; for Contracture, hypoxia 30 min: control 33.7 ± 8.9; for Contracture, hypoxia 60 min: control 32.3 ± 7.4; for Contracture, reoxygenation 15 min: control 20.6 ± 7.8; for Contracture, reoxygenation 30 min: control 12.3 ± 6.1. As to the method:
The hearts of male Wistar rats (325-375 g--Charles River breed) anaesthetized by the intraperitoneal route with sodium pentobarbital (30 mg/kg) are removed after the injection of heparin i.v. (1 ml/kg) and rapidly perfused by the Langendorff technique at a constant pressure of 76 mmhg and stimulated electrically at 5 Hz. The isovolumetric contractions are recorded by way of a small polyethylene balloon connected to a pressure sensor (P23-Gould) introduced into the left ventricle and inflated so as to obtain a diastolic pressure of approximately 10 mmhg. The physiological solution used, maintained at 37° C., has the following composition (mM): NaCl 118; KCl 4.7; KH2 PO4 1.2; MgCl2 1.2; CaCl2 1.3; NaHCO3 25; glucose 8, pH 7.4/95% O2 +5% CO2.
After a period of stabilization of from 15 to 30 minutes, the heart is subjected to hypoxia for 60 minutes (effected with 95% N2 and 5% CO2; PO2 <40 mmHg), followed by reoxygenation for 30 minutes; the compound is added to the incubation medium 15 minutes before and during the period of hypoxia.

Another assay concerns rat aorta. Description: Study on isolated vessels: vascular relaxing effect on a rat aorta contracted by potassium (80 mM). Set-up: species or system Wistar rat. The note with it: rat aorta rings without endothelium contracted by potassium (80 mM). As to the method: The thoracic aorta of Wistar rats (325-375 g) that have been anaesthetized by the intraperitoneal route with sodium pentobarbital (30 mg/kg) is removed and dissected into rings 3 mm in length; the endothelium is removed by gentle abrasion using a piece of wood. Each ring is connected to a Statham pressure sensor (UC2-Gould). The initial pressure applied is 2.5 g. The physiological solution used, maintained at 37° C., has the following composition (mM): NaCl 112; KCl 5; KH2 PO4 1; MgSO4 1.2; CaCl2 2.5; NaHCO3 25; glucose 11.; EDTA 0.026. After a stabilization period of 90 minutes, the aorta rings are subjected to a hyperpotassic medium (80 MM KCl and 37 mM NaCl). When the contraction is stable, cumulative concentrations of compound are added to the medium every 15 minutes. The relaxation values obtained enable calculation of the IC50.

Consider `COc1ccc(CN2CCN(CC(O)COc3cc(C)c(O)c(C)c3C)CC2)c(OC)c1OC` (stereo not drawn) [Example 11, 4-(2,3,4-trimethoxybenzyl)-l-[3-(4-hydroxy-2,3,5-trimethylphenoxy)-2-hydroxypropyl]piperazine], for which the IC50 in the assay on human LDLs amounted to 600 nM. In the assay on cardiac cells, the activity at 10 µM is 18 ± 2.9%, the activity at 1 µM is 70.9 ± 8.3% and the activity at 0.1 µM was determined as 114 ± 5.2%.
For the molecule `COc1ccc(CN2CCN(CC(C)(C)CSc3cc(C(C)(C)C)c(O)c(C(C)(C)C)c3)CC2)c(OC)c1OC` [Example 12, 4-(2,3,4-trimethoxybenzyl)-l-[3-(4-hydroxy-3,5-di-tert.-butylphenylthio)-2,2-dimethylpropyl]piperazine], the IC50 with human LDLs came out at 800 nM.
As to `COc1ccc(CN2CCN(CCC(C)(C)Sc3cc(C(C)(C)C)c(O)c(C(C)(C)C)c3)CC2)c(OC)c1OC` [Example 2, 4-(2,3,4-trimethoxybenzyl)-1-[3-(4-hydroxy-3,5-di-tert.-butylphenylthio)-3,3-dimethylpropyl]piperazine], the IC50 with human LDLs turned out to be 3000 nM.
`COc1ccc(CN2CCN(CC(O)CSc3cc(C)c(O)c(C)c3C)CC2)c(OC)c1OC` (stereo not drawn) [Example 13, 4-(2,3,4-trimethoxybenzyl)-l-[3-(4-hydroxy-2,3,5-trimethylphenylthio)-2-hydroxypropyl)piperazine]: in the assay on isolated hearts of rats, the “functional recovery of the hearts during reoxygenation” value was “more than 70%”; the “reduction of the developing contracture at the end of 30 minutes reoxygenation” value is given as “more than 70%”; the “Contracture, hypoxia 10 min” value worked out at 11.0 ± 4.4 mm Hg; the “Contracture, hypoxia 30 min” value is given as 15.0 ± 6.1 mm Hg. Also, in the assay on isolated hearts of rats, the “Contracture, hypoxia 60 min” value stood at 13.5 ± 6.3 mm Hg; the “Contracture, reoxygenation 15 min” value was 6.0 ± 6.0 mm Hg; the “Contracture, reoxygenation 30 min” value is 3.5 ± 3.5 mm Hg. In the assay with human LDLs, the IC50 turned out to be 70 nM. Further, in the assay on cardiac cells, the activity at 10 µM is 15.1 ± 0.6%, the activity at 1 µM was 64.7 ± 0.4% and the activity at 0.1 µM stood at 100 ± 4.8%. In the assay on rat aorta, this molecule gave an IC50 of 4300 nM.
As to `COc1ccc(CN2CCN(CCCSc3cc(C(C)(C)C)c(O)c(C(C)(C)C)c3)CC2)c(OC)c1OC` [Example 7, 4-(2,3,4-trimethoxybenzyl)-I-[3-(4-hydroxy-3,5-di-tert.-butylphenylthio)propyl]piperazine], in the assay with human LDLs, the IC50 amounted to 600 nM. Moreover, in the assay on cardiac cells, the activity at 10 µM turned out to be 27.9 ± 3.4%, the activity at 1 µM amounted to 19.3 ± 0.9% and the activity at 0.1 µM came out at 85.9 ± 1.7%.
`COc1ccc(CN2CCN(CCCOc3cc(C(C)(C)C)c(O)c(C(C)(C)C)c3)CC2)c(OC)c1OC` [Example 3, 4-(2,3,4-trimethoxybenzyl)-l-[3-(4-hydroxy-3,5-di-tert.-butylphenoxy)propyl]piperazine]: the IC50 with human LDLs is 500 nM. Also, in the assay with cardiac cells, the activity at 10 µM stood at 37.6 ± 2.7%, the activity at 1 µM came out at 16.9 ± 1.1%, the activity at 0.1 µM worked out at 72.6 ± 5.7% and the minimal effective concentration was no less than 0.1 µM.
As for `COc1ccc(CN2CCN(CC(O)CSc3cc(C(C)(C)C)c(O)c(C(C)(C)C)c3)CC2)c(OC)c1OC` (centres unmarked) [Example 6, 4-(2,3,4-trimethoxybenzyl)-I-[3-(4-hydroxy-3,5-di-tert.-butylphenylthio)-2-hydroxypropyl]piperazine], the IC50 in the assay on human LDLs amounted to 300 nM. Also, in the assay with cardiac cells, the activity at 10 µM came to 8.3 ± 1.4%, the activity at 1 µM was 7.7 ± 0.1% and the activity at 0.1 µM stood at 99.5 ± 7.5%. Further, the midpoint of inhibition in the assay on rat aorta, the IC50, lay at 2700 nM.
For `COc1ccc(CN2CCN(CCCCCOc3cc(C(C)(C)C)c(O)c(C(C)(C)C)c3)CC2)c(OC)c1OC` [Example 8, 4-(2,3,4-trimethoxybenzyl)-l-[5-(4-hydroxy-3,5-di-tert.-butylphenoxy)pentyl]piperazine], the IC50 in the assay with human LDLs was 1000 nM. Moreover, in the assay on cardiac cells, the activity at 10 µM amounted to 27.2 ± 2%, the activity at 1 µM was 21.6 ± 4.2% and the activity at 0.1 µM was 91.4 ± 3.1%.
The like results for `COc1ccc(CN2CCN(CCCc3cc(C(C)(C)C)c(O)c(C(C)(C)C)c3)CC2)c(OC)c1OC` [Example 4, 4-(2,3,4-trimethoxybenzyl)-l-[3-(4-hydroxy-3,5-di-tert.-butylphenyl)propyl]piperazine] were, in that order, 2000 nM, 10.2 ± 3.1%, 22.3 ± 6.5% and 103 ± 12%.
As for `COc1ccc(CN2CCN(CCCOc3cc(C)c(O)c(C)c3C)CC2)c(OC)c1OC` [Example 1, 4-(2,3,4-trimethoxybenzyl)-1-[3-(4-hydroxy-2,3,5-trimethylphenoxy)propyl]piperazine], in the assay on isolated hearts of rats, the “functional recovery of the hearts during reoxygenation” value is “more than 70%”; the “reduction of the developing contracture at the end of 30 minutes reoxygenation” value is recorded as “more than 70%”; the “Contracture, hypoxia 10 min” value is on record as 21.0 ± 5.8 mm Hg; the “Contracture, hypoxia 30 min” value is 22.5 ± 2.5 mm Hg. Moreover, in the assay on isolated hearts of rats, the “Contracture, hypoxia 60 min” value came to 21.0 ± 3.9 mm Hg; the “Contracture, reoxygenation 15 min” value is 12.5 ± 5.1 mm Hg; the “Contracture, reoxygenation 30 min” value was 2.5 ± 2.5 mm Hg. In addition, the IC50 in the assay with human LDLs turned out to be 90 nM. Moreover, in the assay on cardiac cells, the activity at 10 µM was 13.9 ± 5.3%, the activity at 1 µM is 55.4 ± 6.4%, the activity at 0.1 µM is 70.4 ± 2.5% and the minimal effective concentration is no less than 0.1 µM. The molecule further returned an IC50 in the assay with rat aorta of 5000 nM.
As for `COc1ccc(CN2CCN(CC(O)COc3cc(C(C)(C)C)c(O)c(C(C)(C)C)c3)CC2)c(OC)c1OC` (stereo not drawn) [Example 5, 4-(2,3,4-trimethoxybenzyl)-l-[3-(4-hydroxy-3,5-di-tert.-butylphenoxy)-2-hydroxypropyl]piperazine], the half-maximal inhibitory concentration (IC50) with human LDLs worked out at 900 nM.
For `COc1ccc(CN2CCN(CCCCCSc3cc(C(C)(C)C)c(O)c(C(C)(C)C)c3)CC2)c(OC)c1OC` [Example 9, 4-(2,3,4-trimethoxybenzyl)-l-[5-(4-hydroxy-3,5-di-tert.-butylphenylthio)pentyl]piperazine], the IC50 in the assay with human LDLs came to 80 nM. In the assay with cardiac cells, the activity at 10 µM was 33.3 ± 6.6%, the activity at 1 µM is 15.2 ± 2%, the activity at 0.1 µM turned out to be 53 ± 5.5% and the minimal effective concentration was no less than 0.1 µM.

One may read the IC50 as the concentration that gives 50% inhibition.
